Measurements as given in patent US12077503B2, “Substituted cyclic amides and their use as herbicides” (FMC CORPORATION, priority 2015, dated 2024).

What was measured:
Type in all cases: in vivo
Kochia (Kochia scoparia) [1] = assay: Test A preemergence; conditions: Bassia scoparia, pre-emergence, 240 h, preemergence, 0 to 100 scale where 0 is no effect and 100 is complete control, read-out: Kochia plant response rating; for pest or weed control at 125 g/ha: 125 g ai/ha, approx. 10 d; for pest or weed control at 500 g/ha: 500 g ai/ha
Summary of the method: (§1)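 Each rating is a visual injury score from 0 to 100 given about 10 d after treatment, judged against untreated controls kept alongside in the greenhouse. In loam soil–sand blend, seeds got a preemergence directed soil spray, while postemergence plants were 2 to 10 cm tall at spraying.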

[2] = system: barnyardgrass (Echinochloa crus-galli); assay: Test A preemergence; conditions: Echinochloa crus-galli, pre-emergence, 240 h, preemergence, read-out: Barnyardgrass plant response rating; for pest or weed control at 125 g/ha: 125 g ai/ha, 0 to 100 scale where 0 is no effect and 100 is complete control, approx. 10 d; for pest or weed control at 500 g/ha: 500 g ai/ha, visual injury rating about 10 d after treatment, 0 to 100 scale (0 no effect, 100 complete control)
Summary of the method: as §1

[3] = system: giant foxtail (Setaria faberii); assay: Test A preemergence; conditions: Setaria faberi, pre-emergence, 240 h, preemergence, 0 to 100 scale where 0 is no effect and 100 is complete control, read-out: Foxtail, Giant plant response rating; for pest or weed control at 125 g/ha: 125 g ai/ha, approx. 10 d; for pest or weed control at 500 g/ha: 500 g ai/ha
Summary of the method: as §1

[4] = system: pigweed (Amaranthus retroflexus); assay: Test A preemergence; conditions: Amaranthus retroflexus, pre-emergence, 240 h, preemergence, 0 to 100 scale where 0 is no effect and 100 is complete control, read-out: Pigweed plant response rating; for pest or weed control at 125 g/ha: 125 g ai/ha, approx. 10 d; for pest or weed control at 500 g/ha: 500 g ai/ha
[5] = system: ragweed (common ragweed, Ambrosia elatior); assay: Test A preemergence; conditions: Ambrosia artemisiifolia, pre-emergence, 240 h, preemergence, 0 to 100 scale where 0 is no effect and 100 is complete control, read-out: Ragweed plant response rating; for pest or weed control at 125 g/ha: 125 g ai/ha, approx. 10 d; for pest or weed control at 500 g/ha: 500 g ai/ha
Summary of the method: as §1

[6] = system: ryegrass, Italian (Italian ryegrass, Lolium multiflorum); assay: Test A preemergence; conditions: Lolium multiflorum, pre-emergence, 240 h, preemergence, 0 to 100 scale where 0 is no effect and 100 is complete control, read-out: Ryegrass, Italian plant response rating; for pest or weed control at 125 g/ha: 125 g ai/ha, approx. 10 d; for pest or weed control at 500 g/ha: 500 g ai/ha
Summary of the method: as §1

[7] = system: Galium (catchweed bedstraw, Galium aparine); assay: Test A postemergence; conditions: Galium, post-emergence, 240 h, postemergence, read-out: Galium plant response rating; for pest or weed control at 125 g/ha: 125 g ai/ha, visual injury on 0 to 100 scale (0 no effect, 100 complete control), approx. 10 d; for pest or weed control at 500 g/ha: 500 g ai/ha, 0 to 100 scale, 0 is no effect, 100 is complete control
Summary of the method: as §1

Kochia (Kochia scoparia) [8] = assay: Test A postemergence; conditions: Bassia scoparia, post-emergence, 240 h, postemergence, read-out: Kochia plant response rating; for pest or weed control at 125 g/ha: 125 g ai/ha, visual injury on 0 to 100 scale (0 no effect, 100 complete control), approx. 10 d; for pest or weed control at 500 g/ha: 500 g ai/ha, 0 to 100 scale, 0 is no effect, 100 is complete control
Summary of the method: as §1

[9] = system: barnyardgrass (Echinochloa crus-galli); assay: Test A postemergence; conditions: Echinochloa crus-galli, post-emergence, 240 h, postemergence, read-out: Barnyardgrass plant response rating; for pest or weed control at 125 g/ha: 125 g ai/ha, visual injury on 0 to 100 scale (0 no effect, 100 complete control), approx. 10 d; for pest or weed control at 500 g/ha: 500 g ai/ha, 0 to 100 scale, 0 is no effect, 100 is complete control
Summary of the method: as §1

[10] = system: blackgrass (Alopecurus myosuroides); assay: Test A postemergence; conditions: Alopecurus myosuroides, post-emergence, 240 h, postemergence, read-out: Blackgrass plant response rating; for pest or weed control at 125 g/ha: 125 g ai/ha, visual injury on 0 to 100 scale (0 no effect, 100 complete control), approx. 10 d; for pest or weed control at 500 g/ha: 500 g ai/ha, 0 to 100 scale, 0 is no effect, 100 is complete control
Summary of the method: as §1

corn (Zea mays) = assay: Test A postemergence; conditions: Zea mays, post-emergence, 240 h, postemergence, read-out: Corn plant response rating; for plant injury at 125 g/ha: 125 g ai/ha, visual injury on 0 to 100 scale (0 no effect, 100 complete control), approx. 10 d; for plant injury at 500 g/ha: 500 g ai/ha, 0 to 100 scale, 0 is no effect, 100 is complete control
Summary of the method: as §1

[11] = system: giant foxtail (Setaria faberii); assay: Test A postemergence; conditions: Setaria faberi, post-emergence, 240 h, postemergence, read-out: Foxtail, Giant plant response rating; for pest or weed control at 125 g/ha: 125 g ai/ha, visual injury on 0 to 100 scale (0 no effect, 100 complete control), approx. 10 d; for pest or weed control at 500 g/ha: 500 g ai/ha, 0 to 100 scale, 0 is no effect, 100 is complete control
Summary of the method: as §1

[12] = system: pigweed (Amaranthus retroflexus); assay: Test A postemergence; conditions: Amaranthus retroflexus, post-emergence, 240 h, postemergence, read-out: Pigweed plant response rating; for pest or weed control at 125 g/ha: 125 g ai/ha, visual injury on 0 to 100 scale (0 no effect, 100 complete control), approx. 10 d; for pest or weed control at 500 g/ha: 500 g ai/ha, 0 to 100 scale, 0 is no effect, 100 is complete control
Summary of the method: as §1

[13] = system: ragweed (common ragweed, Ambrosia elatior); assay: Test A postemergence; conditions: Ambrosia artemisiifolia, post-emergence, 240 h, postemergence, read-out: Ragweed plant response rating; for pest or weed control at 125 g/ha: 125 g ai/ha, visual injury on 0 to 100 scale (0 no effect, 100 complete control), approx. 10 d; for pest or weed control at 500 g/ha: 500 g ai/ha, 0 to 100 scale, 0 is no effect, 100 is complete control
Summary of the method: as §1

[14] = system: ryegrass, Italian (Italian ryegrass, Lolium multiflorum); assay: Test A postemergence; conditions: Lolium multiflorum, post-emergence, 240 h, postemergence, read-out: Ryegrass, Italian plant response rating; for pest or weed control at 125 g/ha: 125 g ai/ha, visual injury on 0 to 100 scale (0 no effect, 100 complete control), approx. 10 d; for pest or weed control at 500 g/ha: 500 g ai/ha, 0 to 100 scale, 0 is no effect, 100 is complete control
Summary of the method: as §1

[15] = system: wheat (Triticum aestivum); assay: Test A postemergence; conditions: Triticum aestivum, post-emergence, 240 h, postemergence, read-out: Wheat plant response rating; for plant injury at 125 g/ha: 125 g ai/ha, visual injury on 0 to 100 scale (0 no effect, 100 complete control), approx. 10 d; for plant injury at 500 g/ha: 500 g ai/ha, 0 to 100 scale, 0 is no effect, 100 is complete control
Summary of the method: as §1

| SMILES | pest or weed control at 125 g/ha (Kochia (Kochia scoparia) [1]) | pest or weed control at 500 g/ha (Kochia (Kochia scoparia) [1]) | pest or weed control at 125 g/ha [2] | pest or weed control at 500 g/ha [2] | pest or weed control at 125 g/ha [3] | pest or weed control at 500 g/ha [3] | pest or weed control at 125 g/ha [4] | pest or weed control at 500 g/ha [4] | pest or weed control at 125 g/ha [5] | pest or weed control at 500 g/ha [5] | pest or weed control at 125 g/ha [6] | pest or weed control at 500 g/ha [6] | pest or weed control at 125 g/ha [7] | pest or weed control at 500 g/ha [7] | pest or weed control at 125 g/ha (Kochia (Kochia scoparia) [8]) | pest or weed control at 500 g/ha (Kochia (Kochia scoparia) [8]) | pest or weed control at 125 g/ha [9] | pest or weed control at 500 g/ha [9] | pest or weed control at 125 g/ha [10] | pest or weed control at 500 g/ha [10] | other results |
| --- | --- | --- | --- | --- | --- | --- | --- | --- | --- | --- | --- | --- | --- | --- | --- | --- | --- | --- | --- | --- | --- |
| CN1C[C@H](c2cc(C(F)F)cs2)[C@@H](C(=O)Nc2cccc(F)c2F)C1=O [Compound 1121] | 80% | 100% | 90% | 100% | 90% | 100% | 0% | 50% | 50% | 100% | 50% | 60% | 50% | 60% | 50% | 70% | 90% | 90% | 40% | 60% | plant injury at 125 g/ha (corn (Zea mays)): 50%; plant injury at 500 g/ha (corn (Zea mays)): 90%; pest or weed control at 125 g/ha [11]: 90%; pest or weed control at 500 g/ha [11]: 90%; pest or weed control at 125 g/ha [12]: 20%; pest or weed control at 500 g/ha [12]: 40%; pest or weed control at 125 g/ha [13]: 20%; pest or weed control at 500 g/ha [13]: 40%; pest or weed control at 125 g/ha [14]: 40%; pest or weed control at 500 g/ha [14]: 70%; plant injury at 125 g/ha [15]: 30%; plant injury at 500 g/ha [15]: 60% |
| CN1C[C@H](c2cscn2)[C@@H](C(=O)Nc2cccc(F)c2F)C1=O [Compound 1113] | 0% | 0% | 0% | 0% | 0% | 0% | 0% | 0% | 0% | 0% | 0% | 0% | 0% | 0% | 0% | 0% | 0% | 0% | 0% | 0% | plant injury at 125 g/ha (corn (Zea mays)): 0%; plant injury at 500 g/ha (corn (Zea mays)): 0%; pest or weed control at 125 g/ha [11]: 0%; pest or weed control at 500 g/ha [11]: 0%; pest or weed control at 125 g/ha [12]: 0%; pest or weed control at 500 g/ha [12]: 0%; pest or weed control at 125 g/ha [13]: 0%; pest or weed control at 500 g/ha [13]: 0%; pest or weed control at 125 g/ha [14]: 0%; pest or weed control at 500 g/ha [14]: 0%; plant injury at 125 g/ha [15]: 0%; plant injury at 500 g/ha [15]: 0% |
